Structures can show the parent of a compound that is named as a salt.
Biological target: T1, BACE1 (Homo sapiens, UniProt P56817)
T1 construct: endogenous in cells; host or cells: HEK293 APP cells
Assay: Cellular Aβ-lowering assay (Abeta 40 AlphaLISA in HEK293 APP cells)
Type: cell-based
Details: 18-20 hrs incubation, Aβ 40 in culture supernatants by AlphaLISA
Protocol: Cellular Aβ-Lowering Assay:
The Abeta 40 AlphaLISA Assay can be used. The HEK293 APP cells were seeded in 96 well Microtiter plates in cell culture medium (Iscove's, plus 10% (v/v) fetal bovine serum, penicillin/streptomycin) to about 80% confluency and the compounds were added at a 3× concentration in ⅓ volume of culture medium (final DMSO concentration was kept at 1% v/v). After 18-20 hrs incubation at 37° C. and 5% CO2 in a humidified incubator, the culture supernatants were harvested for the determination of Aβ 40 concentrations using Perkin-Elmer Human Amyloid beta 1-40 (high specificity) Kit (Cat# AL275C).
In a Perkin-Elmer White Optiplate-384 (Cat#6007290), 2 ul culture supernatants were combined with 2 μl of a 10× AlphaLISA Anti-hAβAcceptor beads+Biotinylated Antibody Anti-Aβ 1-40 Mix (50 μg/mL/5 nM). After 1 hour room temperature incubation, 16 μl of a 1.25× preparation of Streptavidin (SA) Donor beads (25 μg/mL) were added and incubated for 30 minutes in the Dark. Light Emission at 615 nm was then recorded using En Vision-Alpha Reader. Levels of Aβ 40 in the culture supernatants were calculated as percentage of maximum signal (cells treated with 1% DMSO without inhibitor). The IC50 values were calculated using the Excel XLfit software.

T1 sequence (P56817 46-501): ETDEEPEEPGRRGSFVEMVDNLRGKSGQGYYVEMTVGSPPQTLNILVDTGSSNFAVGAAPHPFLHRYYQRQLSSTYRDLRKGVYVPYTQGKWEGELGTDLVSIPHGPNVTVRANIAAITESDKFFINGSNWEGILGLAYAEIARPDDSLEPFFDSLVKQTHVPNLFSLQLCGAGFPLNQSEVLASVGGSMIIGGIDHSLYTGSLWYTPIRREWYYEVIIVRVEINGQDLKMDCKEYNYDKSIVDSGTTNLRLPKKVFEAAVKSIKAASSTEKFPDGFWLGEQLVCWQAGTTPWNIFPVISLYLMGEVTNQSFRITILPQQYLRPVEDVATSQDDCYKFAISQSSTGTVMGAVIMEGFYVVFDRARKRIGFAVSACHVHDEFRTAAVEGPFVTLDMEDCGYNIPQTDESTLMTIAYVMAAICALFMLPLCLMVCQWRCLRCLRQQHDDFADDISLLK

| SMILES | IC50 |
| --- | --- |
| CN=S1(=O)C[C@@](C)(c2nc(NC(=O)c3ncc(C#N)cc3Cl)ccc2F)N=C(N)N1CC(F)(F)F (stereo partly drawn) [Example 17, N-(6-((5R)-3-amino-5-methyl-1-(methylimino)-1-oxido-2-(2,2,2-trifluoroethyl)-5,6-dihydro-2H-1,2,4-thiadiazin-5-yl)-5-fluoropyridin-2-yl)-3-chloro-5-cyanopicolinamide] | 0.292 nM |
| Cc1cc(F)cnc1C(=O)Nc1ccc(F)c([C@]2(C)C[S@@](=O)(=NCC(F)(F)F)N(C)C(N)=N2)n1 [Example 5, N-[6-[(1R,5R)-3-amino-2,5-dimethyl-1-oxo-1-(2,2,2-trifluoroethylimino)-6H-1,2,4-thiadiazin-5-yl]-5-fluoropyridin-2-yl]-5-fluoro-3-methylpyridine-2-carboxamide 2,2,2-trifluoroacetic Acid Salt] | 13.9 nM |
| CN1C(N)=N[C@](C)(c2nc(NC(=O)c3ccc(C#N)cn3)ccc2F)C[S@@]1(=O)=NCC(F)(F)F [Example 4, N-[6-[(1R,5R)-3-amino-2,5-dimethyl-1-oxo-1-(2,2,2-trifluoroethylimino)-6H-1,2,4-thiadiazin-5-yl]-5-fluoro-2-pyridyl]-5-cyano-pyridine-2-carboxamide 2,2,2-trifluoroacetic Acid Salt] | 2.7 nM |
| CN1C(N)=N[C@](C)(c2nc(NC(=O)c3ccc(OCC(F)(F)F)cn3)ccc2F)C[S@@]1(=O)=NCC(F)(F)F [Example 9, N-[6-[(1R,5R)-3-amino-2,5-dimethyl-1-oxo-1-(2,2,2-trifluoroethylimino)-6H-1,2,4-thiadiazin-5-yl]-5-fluoropyridin-2-yl]-5-(2,2,2-trifluoroethoxy)pyridine-2-carboxamide 2,2,2-trifluoroacetic Acid Salt] | 50.7 nM |
| COc1cnc(C(=O)Nc2ccc(F)c([C@]3(C)C[S@@](=O)(=NCC(F)(F)F)N(C)C(N)=N3)n2)cn1 [Example 8, N-[6-[(1R,5R)-3-amino-2,5-dimethyl-1-oxo-1-(2,2,2-trifluoroethylimino)-6H-1,2,4-thiadiazin-5-yl]-5-fluoropyridin-2-yl]-5-methoxypyrazine-2-carboxamide 2,2,2-trifluoroacetic Acid Salt] | 10.1 nM |
| CN=S1(=O)C[C@@](C)(c2nc(NC(=O)c3ncc(C#N)cc3C)ccc2F)N=C(N)N1CC(F)(F)F (stereo partly drawn) [Example 16, N-[6-[(5R)-3-amino-5-methyl-1-methylimino-1-oxo-2-(2,2,2-trifluoroethyl)-6H-1,2,4-thiadiazin-5-yl]-5-fluoropyridin-2-yl]-5-cyano-3-methylpyridine-2-carboxamide; 2,2,2-trifluoroacetic Acid] | 0.593 nM |
| CN=S1(=O)C[C@@](C)(c2nc(NC(=O)c3ncc(C#N)cc3C)ccc2F)N=C(N)N1CC(F)(F)F (stereo partly drawn) [Example 15, N-[6-[(5R)-3-amino-5-methyl-1-methylimino-1-oxo-2-(2,2,2-trifluoroethyl)-6H-1,2,4-thiadiazin-5-yl]-5-fluoropyridin-2-yl]-5-cyano-3-methylpyridine-2-carboxamide; 2,2,2-trifluoroacetic acid] | 0.986 nM |
| CN=S1(=O)CC(C)(c2nc(NC(=O)c3ncc(C#N)cc3C)ccc2F)N=C(N)N1CC(F)(F)F (stereo not drawn) [Example 13, N-[6-[3-amino-5-methyl-1-methylimino-1-oxo-2-(2,2,2-trifluoroethyl)-6H-1,2,4-thiadiazin-5-yl]-5-fluoropyridin-2-yl]-5-cyano-3-methylpyridine-2-carboxamide; 2,2,2-trifluoroacetic Acid] | 134 nM |
| CN=S1(=O)C[C@@](C)(c2nc(NC(=O)c3ncc(F)cc3C)ccc2F)N=C(N)N1CC(F)(F)F (stereo partly drawn) [Example 18, N-[6-[(5R)-3-amino-5-methyl-1-methylimino-1-oxo-2-(2,2,2-trifluoroethyl)-6H-1,2,4-thiadiazin-5-yl]-5-fluoropyridin-2-yl]-5-fluoro-3-methylpyridine-2-carboxamide; 2,2,2-trifluoroacetic acid] | 74.5 nM |
| Cc1cc(C#N)cnc1C(=O)Nc1ccc(F)c([C@]2(C)C[S@@](=O)(=NCC(F)(F)F)N(C)C(N)=N2)n1 [Example 3, N-[6-[(1R,5R)-3-amino-2,5-dimethyl-1-oxo-1-(2,2,2-trifluoroethylimino)-6H-1,2,4-thiadiazin-5-yl]-5-fluoro-2-pyridyl]-5-cyano-3-methyl-pyridine-2-carboxamide 2,2,2-trifluoroacetic Acid Salt] | 0.991 nM |
| CN1C(N)=N[C@](C)(c2nc(NC(=O)c3ccc(OCF)cn3)ccc2F)C[S@@]1(=O)=NCC(F)(F)F [Example 6, N-[6-[(1R,5R)-3-amino-2,5-dimethyl-1-oxo-1-(2,2,2-trifluoroethylimino)-6H-1,2,4-thiadiazin-5-yl]-5-fluoropyridin-2-yl]-5-(fluoromethoxy)pyridine-2-carboxamide 2,2,2-trifluoroacetic Acid Salt] | 3.84 nM |
| CC#CCOc1cnc(C(=O)Nc2ccc(F)c([C@]3(C)C[S@@](=O)(=NCC(F)(F)F)N(C)C(N)=N3)n2)cn1 [Example 7, N-[6-[(1R,5R)-3-amino-2,5-dimethyl-1-oxo-1-(2,2,2-trifluoroethylimino)-6H-1,2,4-thiadiazin-5-yl]-5-fluoropyridin-2-yl]-5-but-2-ynoxypyrazine-2-carboxamide; 2,2,2-trifluoroacetic Acid] | 0.737 nM |
